Experimental data published in patent publication US7138361B2, “Herbicidal heterocycles” (E. I. du Pont de Nemours and Company, priority 2000, dated 2006).

How the values were obtained:
Format in all cases: in vivo
rice (Oryza saliva) [1] = test: Test B flooded paddy test; conditions: Rate 1000 g/ha, scale of 0 to 100 where 0 is no effect and 100 is complete control, visually evaluated after 13 to 15 days
In short: (§1)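 Visual injury score on a 0–100 scale, where 100 means complete control, assigned against untreated controls 13 to 15 days after plants at the 2-leaf stage were treated under flooded paddy conditions.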

[2] = system: smallflower flatsedge (Cyperus difformis); test: Test B flooded paddy test; conditions: Rate 1000 g/ha, scale of 0 to 100 where 0 is no effect and 100 is complete control, visually evaluated after 13 to 15 days
In short: as §1

[3] = system: barnyardgrass (Echinochloa crus-galli); test: Test B flooded paddy test; conditions: Rate 1000 g/ha, scale of 0 to 100 where 0 is no effect and 100 is complete control, visually evaluated after 13 to 15 days
In short: as §1

[4] = system: duck salad (Heteranthera limosa); test: Test B flooded paddy test; conditions: Rate 1000 g/ha, scale of 0 to 100 where 0 is no effect and 100 is complete control, visually evaluated after 13 to 15 days
In short: as §1

wild oat (Avena fatua) = test: Test B postemergence; conditions: 13 to 15 days
In short: (§2)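 Greenhouse test: chemicals are formulated in a surfactant-containing non-phytotoxic solvent and applied either preemergence to planted seeds or postemergence to plants 2 to 18 cm tall. Response is rated visually versus controls after 13 to 15 days, 0 meaning no effect and 100 complete control.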

[5] = system: morning glory (Ipomoea hederacea); test: Test B postemergence; conditions: 13 to 15 days
In short: as §2

[6] = system: velvetleaf (Abutilon theophrasti); test: Test B postemergence; conditions: 13 to 15 days
In short: as §2

[7] = system: blackgrass (Alopecurus myosuroides); test: Test B postemergence; conditions: 13 to 15 days
In short: as §2

[8] = system: wheat (Triticum aestivum); test: Test B postemergence; conditions: 13 to 15 days
In short: as §2

[9] = system: Surinam grass (Brachiaria decumbens); test: Test B postemergence; conditions: 13 to 15 days
In short: as §2

corn (Zea mays) [10] = test: Test B postemergence; conditions: 13 to 15 days
In short: as §2

[11] = system: cocklebur (Xanthium strumarium); test: Test B postemergence; conditions: 13 to 15 days
In short: as §2

[12] = system: barnyardgrass (Echinochloa crus-galli); test: Test B postemergence; conditions: 13 to 15 days
In short: as §2

[13] = system: crabgrass (Digitaria sanguinalis); test: Test B postemergence; conditions: 13 to 15 days
In short: as §2

[14] = system: giant foxtail (Setaria faberii); test: Test B postemergence; conditions: 13 to 15 days
In short: as §2

[15] = system: pigweed (Amaranthus retroflexus); test: Test B postemergence; conditions: 13 to 15 days
In short: as §2

[16] = system: lambsquarters (Chenopodium album); test: Test B postemergence; conditions: 13 to 15 days
In short: as §2

[17] = system: morning glory (Ipomoea hederacea); test: Test B preemergence
In short: as §2

rice (Oryza saliva) [18] = test: Test B preemergence
In short: as §2

[19] = system: velvetleaf (Abutilon theophrasti); test: Test B preemergence
In short: as §2

[20] = system: Surinam grass (Brachiaria decumbens); test: Test B preemergence
In short: as §2

corn (Zea mays) [21] = test: Test B preemergence
In short: as §2

[22] = system: cocklebur (Xanthium strumarium); test: Test B preemergence
In short: as §2

[23] = system: barnyardgrass (Echinochloa crus-galli); test: Test B preemergence
In short: as §2

[24] = system: crabgrass (Digitaria sanguinalis); test: Test B preemergence
In short: as §2

[25] = system: giant foxtail (Setaria faberii); test: Test B preemergence
In short: as §2

[26] = system: pigweed (Amaranthus retroflexus); test: Test B preemergence
In short: as §2

[27] = system: lambsquarters (Chenopodium album); test: Test B preemergence
In short: as §2

rice (Oryza saliva) [28] = test: Test C flooded paddy test; conditions: for Rice plant response rating: Flooded Paddy, scale 0 to 100, 0 no effect, 100 complete control; for Plant response rating, Rice: flooded paddy test, scale 0 to 100 (0 no effect, 100 complete control)
In short: (§3)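 Plants were grown to the 2-leaf stage under flooded paddy conditions and treated. They were then kept in a greenhouse for 12 to 14 days and visually rated against untreated controls on a 0–100 scale, where 0 is no effect and 100 is complete control.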

[29] = system: smallflower flatsedge (Cyperus difformis); test: Test C flooded paddy test; conditions: for Flatsedge plant response rating: Flooded Paddy, scale 0 to 100, 0 no effect, 100 complete control; for Plant response rating, Flatsedge: flooded paddy test, scale 0 to 100 (0 no effect, 100 complete control)
In short: as §3

[30] = system: barnyardgrass (Echinochloa crus-galli); test: Test C flooded paddy test; conditions: for Barnyardgrass plant response rating: Flooded Paddy, scale 0 to 100, 0 no effect, 100 complete control; for Plant response rating, Barnyardgrass: flooded paddy test, scale 0 to 100 (0 no effect, 100 complete control)
In short: as §3

[31] = system: duck salad (Heteranthera limosa); test: Test C flooded paddy test; conditions: for Ducksalad plant response rating: Flooded Paddy, scale 0 to 100, 0 no effect, 100 complete control; for Plant response rating, Ducksalad: flooded paddy test, scale 0 to 100 (0 no effect, 100 complete control)
In short: as §3

[32] = Rate 125 g/ha, scale 0 (no effect) to 100 (complete control)
[33] = Rate 500 g/ha, scale 0 to 100, 0 is no effect, 100 is complete control
[34] = Preemergence, Rate 500 g/ha, scale 0 to 100, 0 no effect, 100 complete control
[35] = preemergence, Rate 125 g/ha, scale of 0 to 100 where 0 is no effect and 100 is complete control, 13 to 15 days

CCC(C)Oc1ccn(C2CCN(c3cccc(C(F)(F)F)c3)C2=O)n1 (stereo not drawn) [Compound 58]
80: Plant response rating, Flatsedge [2] | Plant response rating, Crabgrass [24, 34]
30: Flatsedge plant response rating ([29]; Rate 500 g/ha)
20: Plant response rating, Rice (rice (Oryza saliva) [1]) | Barnyardgrass plant response rating ([30]; Rate 500 g/ha)
0: Plant response rating, Wild Oat (wild oat (Avena fatua); [32]) | Plant response rating, Wild Oat (wild oat (Avena fatua); [33]) | Plant response rating, Morningglory [5, 32] | Plant response rating, Morningglory [5, 33] | Plant response rating, Velvetleaf [6, 32] | Plant response rating, Velvetleaf [6, 33] | Plant response rating, Blackgrass [7, 32] | Plant response rating, Blackgrass [7, 33] | Plant response rating, Wheat [8, 32] | Plant response rating, Wheat [8, 33] | Plant response rating, Surinam grass [9, 32] | Plant response rating, Surinam grass [9, 33] | Plant response rating, Corn (corn (Zea mays) [10]; [32]) | Plant response rating, Corn (corn (Zea mays) [10]; [33]) | Plant response rating, Cocklebur [11, 32] | Plant response rating, Cocklebur [11, 33] | Plant response rating, Barnyardgrass [12, 32] | Plant response rating, Barnyardgrass [12, 33] | Plant response rating, Crabgrass [13, 32] | Plant response rating, Crabgrass [13, 33] | Plant response rating, Foxtail, Giant [14, 32] | Plant response rating, Foxtail, Giant [14, 33] | Plant response rating, Pigweed [15, 32] | Plant response rating, Pigweed [15, 33] | Plant response rating, Lambsquarters [16, 32] | Plant response rating, Lambsquarters [16, 33] | Plant response rating, Morningglory [17, 34] | Plant response rating, Morningglory [17, 35] | Plant response rating, Rice (rice (Oryza saliva) [18]; [34]) | Plant response rating, Rice (rice (Oryza saliva) [18]; [35]) | Plant response rating, Velvetleaf [19, 34] | Plant response rating, Surinam grass [20, 34] | Plant response rating, Surinam grass [20, 35] | Plant response rating, Corn (corn (Zea mays) [21]; [34]) | Plant response rating, Corn (corn (Zea mays) [21]; [35]) | Plant response rating, Cocklebur [22, 34] | Plant response rating, Cocklebur [22, 35] | Plant response rating, Barnyardgrass [23, 35] | Plant response rating, Crabgrass [24, 35] | Plant response rating, Foxtail, Giant [25, 35] | Plant response rating, Pigweed [26, 34] | Plant response rating, Pigweed [26, 35] | Plant response rating, Lambsquarters [27, 34] | Plant response rating, Lambsquarters [27, 35] | Rice plant response rating (rice (Oryza saliva) [28]; Rate 250 g/ha) | Rice plant response rating (rice (Oryza saliva) [28]; Rate 500 g/ha) | Plant response rating, Rice (rice (Oryza saliva) [28]; Rate 62 g/ha) | Plant response rating, Rice (rice (Oryza saliva) [28]; Rate 125 g/ha) | Flatsedge plant response rating ([29]; Rate 250 g/ha) | Plant response rating, Flatsedge ([29]; Rate 62 g/ha) | Plant response rating, Flatsedge ([29]; Rate 125 g/ha) | Barnyardgrass plant response rating ([30]; Rate 250 g/ha) | Plant response rating, Barnyardgrass ([30]; Rate 62 g/ha) | Plant response rating, Barnyardgrass ([30]; Rate 125 g/ha) | Ducksalad plant response rating ([31]; Rate 250 g/ha) | Ducksalad plant response rating ([31]; Rate 500 g/ha) | Plant response rating, Ducksalad ([31]; Rate 62 g/ha) | Plant response rating, Ducksalad ([31]; Rate 125 g/ha)
70: Plant response rating, Ducksalad [4] | Plant response rating, Barnyardgrass [23, 34] | Plant response rating, Foxtail, Giant [25, 34]
90: Plant response rating, Barnyardgrass [3]

CC(C)Oc1ccn(C2CCN(c3cccc(C(F)(F)F)c3)C2=O)n1 (stereo not drawn) [Compound 59]
90: Plant response rating, Flatsedge [2] | Plant response rating, Barnyardgrass [23, 34] | Plant response rating, Crabgrass [24, 34]
70: Plant response rating, Ducksalad [4] | Plant response rating, Foxtail, Giant [25, 34]
20: Plant response rating, Rice (rice (Oryza saliva) [1]) | Plant response rating, Crabgrass [24, 35] | Rice plant response rating (rice (Oryza saliva) [28]; Rate 500 g/ha)
0: Plant response rating, Wild Oat (wild oat (Avena fatua); [32]) | Plant response rating, Wild Oat (wild oat (Avena fatua); [33]) | Plant response rating, Morningglory [5, 32] | Plant response rating, Morningglory [5, 33] | Plant response rating, Velvetleaf [6, 32] | Plant response rating, Velvetleaf [6, 33] | Plant response rating, Blackgrass [7, 32] | Plant response rating, Blackgrass [7, 33] | Plant response rating, Wheat [8, 32] | Plant response rating, Wheat [8, 33] | Plant response rating, Surinam grass [9, 32] | Plant response rating, Surinam grass [9, 33] | Plant response rating, Corn (corn (Zea mays) [10]; [32]) | Plant response rating, Corn (corn (Zea mays) [10]; [33]) | Plant response rating, Cocklebur [11, 32] | Plant response rating, Cocklebur [11, 33] | Plant response rating, Barnyardgrass [12, 32] | Plant response rating, Barnyardgrass [12, 33] | Plant response rating, Crabgrass [13, 32] | Plant response rating, Crabgrass [13, 33] | Plant response rating, Foxtail, Giant [14, 32] | Plant response rating, Foxtail, Giant [14, 33] | Plant response rating, Pigweed [15, 32] | Plant response rating, Pigweed [15, 33] | Plant response rating, Lambsquarters [16, 32] | Plant response rating, Lambsquarters [16, 33] | Plant response rating, Morningglory [17, 34] | Plant response rating, Morningglory [17, 35] | Plant response rating, Rice (rice (Oryza saliva) [18]; [35]) | Plant response rating, Velvetleaf [19, 34] | Plant response rating, Velvetleaf [19, 35] | Plant response rating, Corn (corn (Zea mays) [21]; [34]) | Plant response rating, Corn (corn (Zea mays) [21]; [35]) | Plant response rating, Cocklebur [22, 34] | Plant response rating, Cocklebur [22, 35] | Plant response rating, Barnyardgrass [23, 35] | Plant response rating, Foxtail, Giant [25, 35] | Plant response rating, Pigweed [26, 34] | Plant response rating, Pigweed [26, 35] | Plant response rating, Lambsquarters [27, 35] | Rice plant response rating (rice (Oryza saliva) [28]; Rate 250 g/ha) | Plant response rating, Rice (rice (Oryza saliva) [28]; Rate 62 g/ha) | Plant response rating, Rice (rice (Oryza saliva) [28]; Rate 125 g/ha) | Flatsedge plant response rating ([29]; Rate 250 g/ha) | Plant response rating, Flatsedge ([29]; Rate 62 g/ha) | Plant response rating, Flatsedge ([29]; Rate 125 g/ha) | Barnyardgrass plant response rating ([30]; Rate 250 g/ha) | Plant response rating, Barnyardgrass ([30]; Rate 62 g/ha) | Plant response rating, Barnyardgrass ([30]; Rate 125 g/ha) | Ducksalad plant response rating ([31]; Rate 250 g/ha) | Ducksalad plant response rating ([31]; Rate 500 g/ha) | Plant response rating, Ducksalad ([31]; Rate 62 g/ha) | Plant response rating, Ducksalad ([31]; Rate 125 g/ha)
60: Plant response rating, Surinam grass [20, 35]
100: Plant response rating, Barnyardgrass [3] | Plant response rating, Lambsquarters [27, 34]
50: Plant response rating, Rice (rice (Oryza saliva) [18]; [34])
30: Flatsedge plant response rating ([29]; Rate 500 g/ha) | Barnyardgrass plant response rating ([30]; Rate 500 g/ha)
80: Plant response rating, Surinam grass [20, 34]
